Legend:
[1] = tested on: r(UGGAA)9 (RNA, repeat) UGGAAUGGAAUGGAAUGGAAUGGAAUGGAAUGGAAUGGAAUGGAA; assay: EMSA; settings: 100 mM NaCl; 10 mM sodium cacodylate pH 7.0, room temperature; 2 µM compound
[2] = tested on: SCA31 hpRNA (RNA, hairpin) GUACUGGAACAUGUUUCAUGUGGAAGUAC; assay: NMR solution structure; settings: 100 mM NaCl; 20 mM sodium phosphate pH 6.9, 288 K
[3] = tested on: GGA/AGA internal loop RNA duplex (RNA, mismatch bulge abasic) GUACUGGAACAUG/CAUGUAGAAGUAC; assay: UV melting; settings: 100 mM NaCl; 10 mM sodium cacodylate pH 7.0; 20 µM compound, 4 µM RNA
[4] = tested on: GGA/GGA internal loop RNA duplex (UGGAA/UGGAA pentad) (RNA, mismatch bulge abasic) GUACUGGAACAUG/CAUGUGGAAGUAC; assay: UV melting; settings: 100 mM NaCl; 10 mM sodium cacodylate pH 7.0; 20 µM compound, 4 µM RNA
[5] = tested on: r(UGGAA)9 (RNA, repeat) UGGAAUGGAAUGGAAUGGAAUGGAAUGGAAUGGAAUGGAAUGGAA; assay: UV melting; settings: 100 mM NaCl; 10 mM sodium cacodylate pH 7.0; 20 µM compound, 2 µM RNA; Tm 73.7 °C with NCD, none without
[6] = tested on: 5'-biotin-TEG r(UGGAA)9 (RNA, repeat) UGGAAUGGAAUGGAAUGGAAUGGAAUGGAAUGGAAUGGAAUGGAA; assay: SPR; settings: 150 mM NaCl; 10 mM HEPES pH 7.4, 3 mM EDTA, 0.05% P20; 500 nM compound
[7] = tested on: SCA31 hpRNA (RNA, hairpin) GUACUGGAACAUGUUUCAUGUGGAAGUAC; assay: ESI-TOF MS; settings: 100 mM ammonium acetate; 50% methanol; 10 µM RNA, 40 µM compound
[8] = tested on: SCA31 hpRNA (RNA, hairpin) GUACUGGAACAUGUUUCAUGUGGAAGUAC; assay: ITC; settings: 100 mM NaCl; 10 mM sodium cacodylate pH 7.0, 25 °C; apparent; single set of identical sites
[9] = tested on: r(UAAAA)9 (RNA, repeat) UAAAAUAAAAUAAAAUAAAAUAAAAUAAAAUAAAAUAAAAUAAAA; assay: UV melting; settings: 100 mM NaCl; 10 mM sodium cacodylate pH 7.0; 20 µM compound, 2 µM RNA

**Q.** For `Cc1ccc2ccc(NC(=O)OCCCNCCCOC(=O)Nc3ccc4ccc(C)nc4n3)nc2n1`, which binding [1] is on record?
**A.** yes

**Q.** What about the binding [2] of the same compound?
**A.** yes

**Q.** What about the ΔTm [3] of the same compound?
**A.** 5.2 °C

**Q.** And the Tm [4]?
**A.** 21.5 °C

**Q.** And the binding [5]?
**A.** yes

**Q.** And the binding [6]?
**A.** yes

**Q.** What about the binding [7] of the same compound?
**A.** yes

**Q.** What about the “Kd(app)” value [8] of the same compound?
**A.** 0.032 µM

**Q.** What about the binding [9] of the same compound?
**A.** no

Reference: PMC7801683 (2021)
